In brackets after ≈: the same amount, converted by molar mass.
Legend:
[1] = system: Mycobacterium tuberculosis; assay: Antitubercular activity against Mycobacterium tuberculosis H37Rv after 7 days by microplate alamar blue assay; type: functional; conditions: 168 h
[2] = Aqueous solubility of the compound at pH 2 after 12 hrs by HPLC-UV method; type: physicochemical
[3] = Cytotoxicity against African green monkey Vero cells assessed as cell viability after 72 hrs by MTT assay; type: cell-based; conditions: chlorocebus sabaeus
[4] = system: Mus musculus; assay: Acute toxicity in Kunming mouse assessed as mortality at 500 mg/kg, po measured during first 4 hours and then each hour for next 24 hrs and at 8 hourly intervals for following 7 days post dose; type: organism-based; conditions: in vivo
[5] = Elimination half life in ICR mouse at 50 mg/kg, po by HPLC analysis; type: ADME, organism-based; conditions: in vivo, read-out: beta t1/2 (converted)
[6] = Tmax in ICR mouse at 50 mg/kg, po by HPLC analysis; type: ADME, organism-based; conditions: in vivo
[7] = Cmax in ICR mouse at 50 mg/kg, po by HPLC analysis; type: ADME, organism-based; set-up: dose 50 mg/kg, route oral; conditions: in vivo
[8] = AUC (0 to infinity) in ICR mouse at 50 mg/kg, po by HPLC analysis; type: ADME, organism-based; set-up: dose 50 mg/kg, time infinity, route oral; conditions: in vivo
[9] = MRT in ICR mouse at 50 mg/kg, po by HPLC analysis; type: ADME, organism-based; conditions: in vivo

Compound	MIC90 [1] [µM]	solubility at 12 h [2] [µg/mL]	CC50 at 72 h [3] [µM]	further results
O=c1nc(N2CCC3(CCN(Cc4ccc(Br)cc4)CC3)CC2)sc2c([N+](=O)[O-])cc(C(F)(F)F)cc12	0.057 (≈ 0.0341 µg/mL)	1.17 (≈ 1.96 µM)	1680	Activity [4]: Non-Toxic; half-life [5]: 10.7 h; Tmax [6]: 1 h; Cmax [7]: 1680 ng/mL; AUC(0-inf) [8]: 24600 ng·h/mL; MRT [9]: 15.9 h
O=c1nc(N2CCC3(CCN(Cc4cccc(F)c4)CC3)CC2)sc2c([N+](=O)[O-])cc(C(F)(F)F)cc12	0.054 (≈ 0.029 µg/mL)	1.13 (≈ 2.11 µM)	1400	Activity [4]: Non-Toxic; half-life [5]: 3.53 h; Tmax [6]: 0.67 h; Cmax [7]: 901 ng/mL; AUC(0-inf) [8]: 4870 ng·h/mL; MRT [9]: 4.83 h
CO[C@H]1/C=C/O[C@@]2(C)Oc3c(C)c(O)c4c(O)c(c(/C=N/N5CCN(C)CC5)c(O)c4c3C2=O)NC(=O)/C(C)=C\C=C\[C@H](C)[C@H](O)[C@@H](C)[C@@H](O)[C@@H](C)[C@H](OC(C)=O)[C@@H]1C [RIFAMPIN]	0.092 (≈ 0.0757 µg/mL)	–	–	–
O=c1nc(N2CCC3(CCN(Cc4ccc(F)cc4)CC3)CC2)sc2c([N+](=O)[O-])cc(C(F)(F)F)cc12	0.21 (≈ 0.113 µg/mL)	–	–	–
COc1ccc(CN2CCC3(CCN(c4nc(=O)c5cc(C(F)(F)F)cc([N+](=O)[O-])c5s4)CC3)C2)cc1	0.112 (≈ 0.0599 µg/mL)	1.4 (≈ 2.62 µM)	86.2	–
COc1cc(CN2CCC3(CC2)CCN(c2nc(=O)c4cc(C(F)(F)F)cc([N+](=O)[O-])c4s2)CC3)cc(OC)c1	0.825 (≈ 0.477 µg/mL)	–	–	–
CCN(CC)C(=O)CN1CCC2(CC1)CCN(c1nc(=O)c3cc(C(F)(F)F)cc([N+](=O)[O-])c3s1)CC2	6.32 (≈ 3.42 µg/mL)	–	–	–
O=c1nc(N2CCC3(CCN(Cc4ccc(C(F)(F)F)cc4)CC3)CC2)sc2c([N+](=O)[O-])cc(C(F)(F)F)cc12	< 0.035	1.24 (≈ 2.11 µM)	145	Activity [4]: Non-Toxic; half-life [5]: 3.59 h; Tmax [6]: 1.33 h; Cmax [7]: 2700 ng/mL; AUC(0-inf) [8]: 28700 ng·h/mL; MRT [9]: 6.07 h
O=c1nc(N2CCC3(CCN(CC4CCCCC4)CC3)CC2)sc2c([N+](=O)[O-])cc(C(F)(F)F)cc12	0.944 (≈ 0.495 µg/mL)	–	–	–
O=c1nc(N2CCC3(CCN(Cc4ccc(F)cc4)C3)CC2)sc2c([N+](=O)[O-])cc(C(F)(F)F)cc12	< 0.035	1.12 (≈ 2.14 µM)	811	half-life [5]: 3.11 h; Tmax [6]: 1.08 h; Cmax [7]: 1230 ng/mL; AUC(0-inf) [8]: 6020 ng·h/mL; MRT [9]: 4 h
COc1ccc(CN2CCC3(CC2)CCN(c2nc(=O)c4cc(C(F)(F)F)cc([N+](=O)[O-])c4s2)CC3)cc1	1 (≈ 0.551 µg/mL)	–	–	–
O=c1nc(N2CCN(CC3CCCCC3)CC2)sc2c([N+](=O)[O-])cc(C(F)(F)F)cc12 [MACOZINONE]	< 0.035	0.9 (≈ 1.97 µM)	1400	half-life [5]: 2.87 h; Tmax [6]: 0.83 h; Cmax [7]: 1300 ng/mL; AUC(0-inf) [8]: 5480 ng·h/mL; MRT [9]: 3.73 h
O=c1nc(N2CCC3(CC2)CN(CC2CCCCC2)C3)sc2c([N+](=O)[O-])cc(C(F)(F)F)cc12	0.468 (≈ 0.232 µg/mL)	–	–	–
NNC(=O)c1ccncc1 [ISONIAZID]	0.284 (≈ 0.0389 µg/mL)	–	–	–
O=C(CN1CCC2(CC1)CCN(c1nc(=O)c3cc(C(F)(F)F)cc([N+](=O)[O-])c3s1)CC2)NCc1ccccc1	6.42 (≈ 3.69 µg/mL)	–	–	–
O=c1nc(N2CCC3(CCN(CC4CCCCC4)C3)CC2)sc2c([N+](=O)[O-])cc(C(F)(F)F)cc12	0.22 (≈ 0.112 µg/mL)	–	–	–
O=c1nc(N2CCC3(CCN(Cc4cc(F)cc(F)c4)CC3)CC2)sc2c([N+](=O)[O-])cc(C(F)(F)F)cc12	< 0.035	0.67 (≈ 1.21 µM)	1170	Activity [4]: Non-Toxic; half-life [5]: 4.68 h; Tmax [6]: 0.5 h; Cmax [7]: 426 ng/mL; AUC(0-inf) [8]: 2600 ng·h/mL; MRT [9]: 5.8 h
O=c1nc(N2CCC3(CCN(Cc4ccccc4)C3)CC2)sc2c([N+](=O)[O-])cc(C(F)(F)F)cc12	0.06 (≈ 0.0303 µg/mL)	1.56 (≈ 3.09 µM)	289	–
CC(C)(C)OC(=O)N1CCC2(CC1)CCN(c1nc(=O)c3cc(C(F)(F)F)cc([N+](=O)[O-])c3s1)CC2	0.219 (≈ 0.116 µg/mL)	–	–	–
COc1ccc(CN2CC3(CCN(c4nc(=O)c5cc(C(F)(F)F)cc([N+](=O)[O-])c5s4)CC3)C2)cc1	0.113 (≈ 0.0588 µg/mL)	1.2 (≈ 2.31 µM)	78.9	–
CCOC(=O)CN1CCC2(CC1)CCN(c1nc(=O)c3cc(C(F)(F)F)cc([N+](=O)[O-])c3s1)CC2	0.542 (≈ 0.279 µg/mL)	–	–	–
COc1ccccc1CN1CCC2(CCN(c3nc(=O)c4cc(C(F)(F)F)cc([N+](=O)[O-])c4s3)CC2)C1	1.68 (≈ 0.896 µg/mL)	–	–	–
CC(C)(C)OC(=O)N1CCC2(CCN(c3nc(=O)c4cc(C(F)(F)F)cc([N+](=O)[O-])c4s3)CC2)C1	3.26 (≈ 1.68 µg/mL)	–	–	–
O=C(CN1CCC2(CC1)CCN(c1nc(=O)c3cc(C(F)(F)F)cc([N+](=O)[O-])c3s1)CC2)OCc1ccccc1	0.352 (≈ 0.203 µg/mL)	–	–	–
CC(C)(C)OC(=O)N1CC2(CCN(c3nc(=O)c4cc(C(F)(F)F)cc([N+](=O)[O-])c4s3)CC2)C1	1.92 (≈ 0.963 µg/mL)	–	–	–
O=c1nc(N2CCC3(CCN(Cc4ccccc4)CC3)CC2)sc2c([N+](=O)[O-])cc(C(F)(F)F)cc12	0.847 (≈ 0.439 µg/mL)	–	–	–
CN1CCC2(CC1)CCN(c1nc(=O)c3cc(C(F)(F)F)cc([N+](=O)[O-])c3s1)CC2	33.5 (≈ 14.8 µg/mL)	–	–	–
COc1ccc(C(=O)N2CCC3(CC2)CCN(c2nc(=O)c4cc(C(F)(F)F)cc([N+](=O)[O-])c4s2)CC3)cc1	26.6 (≈ 15 µg/mL)	–	–	–
CCOC(=O)CN1CCC2(CCN(c3nc(=O)c4cc(C(F)(F)F)cc([N+](=O)[O-])c4s3)CC2)C1	0.062 (≈ 0.031 µg/mL)	2.04 (≈ 4.08 µM)	266	Activity [4]: Non-Toxic; half-life [5]: 3.46 h; Tmax [6]: 0.67 h; Cmax [7]: 17.6 ng/mL; AUC(0-inf) [8]: 41.8 ng·h/mL; MRT [9]: 5.2 h
CCOC(=O)CN1CC2(CCN(c3nc(=O)c4cc(C(F)(F)F)cc([N+](=O)[O-])c4s3)CC2)C1	0.444 (≈ 0.216 µg/mL)	–	–	–
